Test results taken from article PMC9590610 (Chemical biology & drug design, 2020).

B1: GST-FAK-NT (FERM) (domain or fragment, UniProt Q05397 35-355, looked up)
chain: RVLKVFHYFESNSEPTTWASIIRHGDATDVRGIIQKIVDSHKVKHVACYGFRLSHLRSEEVHWLHVDMGVSSVREKYELAHPPEEWKYELRIRYLPKGFLNQFTEDKPTLNFFYQQVKSDYMLEIADQVDQEIALKLGCLEIRRSYWEMRGNALEKKSNYEVLEKDVGLKRFFPKSLLDSVKAKTLRKLIQQTFRQFANLNREESILKFFEILSPVYRFDKECFKCALGSSWIISVELAIGPEEGISYLTDKGCNPTHLADFTQVQTIQYSNSEDKDRKGMLQLKIAGAPEPLTVTAPSLTIAENMADLIDGYCRLVNGTS

How the values were obtained:
[1] = target: FAK (focal adhesion kinase) FERM domain (Homo sapiens, UniProt Q05397); assay type: binding
[2] = target: Recombinant HER2-ICD (Intracellular Domain) (human, UniProt P04626 676-1255)

| Molecule | IC50 [1] | Kd [2] |
| --- | --- | --- |
| CC(Oc1ccc(C(=O)NCCN2CCN(C)CC2c2ccccc2)cn1)c1ccccc1 (racemic) [VS14, (rac)-N-(2-(4-methyl-2-phenylpiperazin-1-yl)ethyl)-6-(1-phenylethoxy)nicotinamide] | 187 nM |  |
| Cc1nc(SC(C)C(=O)Nc2ccc3[nH]c(=O)[nH]c3c2)n(C2CCCC2)c1C (racemic) [VS4, (rac)-2-((1-cyclopentyl-4,5-dimethyl-1H-imidazol-2-yl)thio)-N-(2-oxo-2,3-dihydro-1H-benzo[d]imidazol-5-yl)propanamide] | 170 nM |  |
| B1 |  | 571 nM |
